Reference: US3988450A, “Cephalosporins” (priority 1974, dated 1976)
In brackets after ≈: the same amount, converted by molar mass. Where two headings read alike, the source gives them in different places.

Tests used:
[1] = Serum concentrations in mice after sub-cutaneous injection, microbiological assay; format: in vivo; conditions: mouse, sc, 50 mg/kg sub-cutaneous, average, read-out: Serum concentrations at time after dosing; for concentration at 0.5 h: 30 min; for concentration at 1 h: 60 min
Description: Each compound was injected sub-cutaneously into groups of mice at a dose of 50 mg/kg, and serum samples were taken at timed intervals thereafter and assayed microbiologically for their antibiotic content using the appropriate compound as standard.

Staph. aureus Oxford = assay: MIC on nutrient agar; format: cell-based; conditions: Staphylococcus aureus
Description: (§1) The minimum inhibitory concentrations of this compound required to inhibit the growth of various bacteria on nutrient agar are tabulated below: […]

β-Haemolytic Strep. CN10 = assay: MIC on nutrient agar; format: cell-based
Description: as §1

E. coli JT1 = assay: MIC on nutrient agar; format: cell-based; conditions: Escherichia coli
Description: as §1

Proteus mirabilis C977 = assay: MIC on nutrient agar; format: cell-based
Description: as §1

Klebsiella aerogenes A = assay: MIC on nutrient agar; format: cell-based
Description: as §1

P. mirabilis 889 = assay: MIC on nutrient agar; format: cell-based; conditions: Proteus mirabilis; P. mirabilis 889, nutrient agar
Description: as §1

B. subtilis = assay: MIC on nutrient agar; format: cell-based; conditions: Bacillus subtilis
Description: as §1

Enterobacter cloacae N1 = assay: MIC on nutrient agar; format: cell-based
Description: as §1

Serratia marcescens US32 = assay: MIC on nutrient agar; format: cell-based
Description: as §1

Shigella sonnei = assay: MIC on nutrient agar; format: cell-based
Description: as §1

Salmonella typhi = assay: MIC on nutrient agar; format: cell-based; conditions: Salmonella enterica
Description: as §1

Staph. aureus Russell = assay: MIC on nutrient agar; format: cell-based; conditions: Staphylococcus aureus
P. morganii = assay: MIC on nutrient agar; format: cell-based; conditions: Morganella morganii
Description: as §1

P. mirabilis 899 = assay: MIC on nutrient agar; format: cell-based; conditions: Proteus mirabilis; P. mirabilis 899, nutrient agar
[2] = general knowledge; cited from earlier work
[3] = E. coli JT1, nutrient agar, read-out: MIC

| Compound | MIC (Staph. aureus Oxford) [µg/mL] | MIC (β-Haemolytic Strep. CN10) [µg/mL] | MIC (E. coli JT1; [3]) [µg/mL] | MIC (Proteus mirabilis C977) [µg/mL] | MIC (Klebsiella aerogenes A) [µg/mL] | MIC (B. subtilis) [µg/mL] | MIC (Shigella sonnei) [µg/mL] | MIC (Salmonella typhi) [µg/mL] | MIC (Staph. aureus Russell) [µg/mL] | other results |
| --- | --- | --- | --- | --- | --- | --- | --- | --- | --- | --- |
| N[C@@H](C(=O)N[C@@H]1C(=O)N2C(C(=O)O)=C(Cc3ccc(C(=O)O)cc3)CS[C@H]12)c1ccccc1 [p-carboxy isomer, 3-(p-Carboxybenzyl)-7β-(D-α-phenylglycyl)amino-ceph-3-em-4-carboxylic acid] |  |  |  |  |  |  |  |  |  | concentration at 10 min [1]: 75000 ng/mL; concentration at 20 min [1]: 87000 ng/mL; concentration at 0.5 h [1]: 69000 ng/mL; concentration at 1 h [1]: 48000 ng/mL; concentration at 2 h [1]: 22000 ng/mL; concentration at 4 h [1]: 9300 ng/mL |
| N[C@@H](C(=O)N[C@@H]1C(=O)N2C(C(=O)O)=C(Cc3ccccc3C(=O)O)CS[C@H]12)c1ccccc1 [LV, 3-(o-Carboxybenzyl)-7β-(D-α-phenylglycyl)aminoceph-3-em-4-carboxylic acid] | 5 (≈ 10.7 µM) | 5 (≈ 10.7 µM) | 12.5 (≈ 26.7 µM) | 5 (≈ 10.7 µM) | 5 (≈ 10.7 µM) | 1.25 (≈ 2.67 µM) |  |  |  | MIC (P. mirabilis 889): 5 µg/mL (≈ 10.7 µM) |
| N[C@@H](C(=O)N[C@@H]1C(=O)N2C(C(=O)O)=C(Cc3ccccc3C(=O)O)CS[C@H]12)c1ccccc1 [o-carboxy isomer, 3-(o-Carboxybenzyl)-7β-(D-α-phenylglycyl)aminoceph-3-em-4-carboxylic acid] |  |  |  |  |  |  |  |  |  | concentration at 10 min [1]: 63000 ng/mL; concentration at 20 min [1]: 66000 ng/mL; concentration at 0.5 h [1]: 58000 ng/mL; concentration at 1 h [1]: 49000 ng/mL; concentration at 2 h [1]: 41000 ng/mL; concentration at 4 h [1]: 31000 ng/mL |
| CN(C(=O)C=Cc1ccccc1)C(=O)N[C@@H](C(=O)N[C@@H]1C(=O)N2C(C(=O)O)=C(Cc3ccc(C(=O)O)cc3)CS[C@H]12)c1ccccc1 [XXI, 3-(p-Carboxybenzyl)-7β-[D-α-(3-cinnamoyl-3-methylureido)phenylacetamido]ceph-3-em-4-carboxylic acid] | 2.5 (≈ 3.82 µM) | 0.12 (≈ 0.183 µM) |  | 5 (≈ 7.64 µM) | 5 (≈ 7.64 µM) |  | 5 (≈ 7.64 µM) | 12.5 (≈ 19.1 µM) |  | MIC (Enterobacter cloacae N1): 5 µg/mL (≈ 7.64 µM); MIC (E. coli JT1; JT1): 12.5 µg/mL (≈ 19.1 µM); MIC (Serratia marcescens US32): 5 µg/mL (≈ 7.64 µM) |
| NC(=O)N[C@H](Cc1c[nH]c2ccccc12)C(=O)N[C@@H](C(=O)N[C@@H]1C(=O)N2C(C(=O)O)=C(Cc3ccc(C(=O)O)cc3)CS[C@H]12)c1ccccc1 [XXVI] | 0.5 (≈ 0.718 µM) |  | 5 (≈ 7.18 µM) | 12.5 (≈ 17.9 µM) | 5 (≈ 7.18 µM) |  | 5 (≈ 7.18 µM) | 5 (≈ 7.18 µM) | 5 (≈ 7.18 µM) |  |
| CN(N=Cc1ccccc1)C(=O)N[C@@H](C(=O)N[C@@H]1C(=O)N2C(C(=O)O)=C(Cc3ccc(C(=O)O)cc3)CS[C@H]12)c1ccccc1 [XIX, 3-(p-Carboxybenzyl)-7β-[D-α-(3-benzylideneimino-3-methylureido)phenylacetamido]ceph-3-em-4-carboxylic acid] | 1.25 (≈ 1.99 µM) | 0.12 (≈ 0.191 µM) | 12.5 (≈ 19.9 µM) | 5 (≈ 7.97 µM) | 5 (≈ 7.97 µM) |  | 2.5 (≈ 3.98 µM) | 5 (≈ 7.97 µM) |  | MIC (Enterobacter cloacae N1): 5 µg/mL (≈ 7.97 µM); MIC (Serratia marcescens US32): 12.5 µg/mL (≈ 19.9 µM); MIC (P. morganii): 12.5 µg/mL (≈ 19.9 µM) |
| N[C@@H](C(=O)N[C@@H]1C(=O)N2C(C(=O)O)=C(Cc3ccc(C(=O)O)cc3)CS[C@H]12)c1ccccc1.O=C(O)C(F)(F)F [XIII, 3-(p-Carboxybenzyl)-7β-(D-α-phenylglycyl)amino-ceph-3-em-4-carboxylic acid trifluoroacetic acid salt] | 0.5 | 0.5 | 12.5 | 1.25 |  | 1.25 | 5 | 0.5 | 2.5 |  |
| O=C(O)C1=C(Cc2cccc(C(=O)O)c2)CS[C@@H]2[C@H](NC(=O)[C@H](O)c3ccccc3)C(=O)N12 [XLIII] | 0.5 (≈ 1.07 µM) | 2 (≈ 4.27 µM) |  | 8 (≈ 17.1 µM) |  | 0.5 (≈ 1.07 µM) |  | 8 (≈ 17.1 µM) |  |  |
| N[C@@H](C(=O)N[C@@H]1C(=O)N2C(C(=O)O)=C(Cc3ccc(C(=O)O)cc3)CS[C@H]12)c1ccc(O)cc1.O=C(O)C(F)(F)F [XVII, 3-(p-carboxybenzyl)-7β-(D-α-p-hydroxyphenylglycyl)aminoceph-3-em-4-carboxylic acid trifluoroacetic acid salt] | 2.5 | 0.5 |  | 2.5 |  | 5 |  | 5 | 5 |  |
| O=C(Cc1cccs1)N[C@@H]1C(=O)N2C(C(=O)O)=C(Cc3ccc(C(=O)O)cc3)CS[C@H]12 [XXX, 7β-(2-Thienylacetamido)-3-(p-carboxybenzyl)ceph-3-em-4-carboxylic acid] | 0.1 (≈ 0.218 µM) | 0.5 (≈ 1.09 µM) |  | 5 (≈ 10.9 µM) |  | 1.2 (≈ 2.62 µM) |  | 5 (≈ 10.9 µM) | 5 (≈ 10.9 µM) | MIC (P. mirabilis 899): 2.5 µg/mL (≈ 5.45 µM) |
| Cc1nnc(SCC2=C(C(=O)O)N3C(=O)[C@@H](NC(=O)Cn4cnnn4)[C@H]3SC2)s1 [Cefazolin, reference compound] |  |  |  |  |  |  |  |  |  | duration of action (regarded as) [2]: relatively `long-acting` cephalosporin; concentration at 10 min [1]: 45000 ng/mL; concentration at 20 min [1]: 37000 ng/mL; concentration at 0.5 h [1]: 21000 ng/mL; concentration at 1 h [1]: < 4000 ng/mL; concentration at 2 h [1]: < 4000 ng/mL; concentration at 4 h [1]: < 4000 ng/mL |
| CN(N=Cc1ccccc1)C(=O)N[C@@H](C(=O)N[C@@H]1C(=O)N2C(C(=O)O)=C(Cc3ccccc3C(=O)O)CS[C@H]12)c1ccccc1 [LVIII, 3-(o-Carboxybenzyl)-7β-[D-α-(3-benzylideneimino-3-methylureido)-phenylacetamido]-ceph-3-em-4-carboxylic acid] | 8 (≈ 12.7 µM) | 0.2 (≈ 0.319 µM) | 8 (≈ 12.7 µM) |  |  |  | 4 (≈ 6.37 µM) |  |  | MIC (Enterobacter cloacae N1): 8 µg/mL (≈ 12.7 µM) |
| N[C@@H](C(=O)N[C@@H]1C(=O)N2C(C(=O)O)=C(Cc3cccc(C(=O)O)c3)CS[C@H]12)c1ccccc1 [XLI, 3-(m-Carboxybenzyl)-7β-(D-α-phenylglycyl)amino-ceph-3-em-4-carboxylic acid] | 0.25 (≈ 0.535 µM) | 0.12 (≈ 0.257 µM) | 12.5 (≈ 26.7 µM) | 2.5 (≈ 5.35 µM) | 2.5 (≈ 5.35 µM) | 0.25 (≈ 0.535 µM) |  | 2.5 (≈ 5.35 µM) | 1.25 (≈ 2.67 µM) |  |
| CN(C(=O)C=Cc1ccccc1)C(=O)N[C@@H](C(=O)N[C@@H]1C(=O)N2C(C(=O)O)=C(Cc3ccccc3C(=O)O)CS[C@H]12)c1ccccc1 [LVIX, 3-(o-Carboxybenzyl)-7β-[D-α-(3-cinnamoul-3-methylureido)phenylacetamido]ceph-3-em-4-carboxylic acid] | 4 (≈ 6.11 µM) | 0.25 (≈ 0.382 µM) |  |  |  |  | 4 (≈ 6.11 µM) |  |  | MIC (Serratia marcescens US32): 4 µg/mL (≈ 6.11 µM) |
| N[C@@H](C(=O)N[C@@H]1C(=O)N2C(C(=O)O)=C(Cc3cccc(C(=O)O)c3)CS[C@H]12)c1ccccc1 [m-carboxy isomer, 3-(m-Carboxybenzyl)-7β-(D-α-phenylglycyl)amino-ceph-3-em-4-carboxylic acid] |  |  |  |  |  |  |  |  |  | concentration at 10 min [1]: 84000 ng/mL; concentration at 20 min [1]: 64000 ng/mL; concentration at 0.5 h [1]: 50000 ng/mL; concentration at 1 h [1]: 26000 ng/mL; concentration at 2 h [1]: 14000 ng/mL; concentration at 4 h [1]: 1600 ng/mL |
| O=C(O)C1=C(Cc2ccc(C(=O)O)cc2)CS[C@@H]2[C@H](NC(=O)[C@H](O)c3ccccc3)C(=O)N12 [XV] | 0.25 (≈ 0.534 µM) | 0.25 (≈ 0.534 µM) | 5 (≈ 10.7 µM) | 0.5 (≈ 1.07 µM) |  | 0.5 (≈ 1.07 µM) |  | 5 (≈ 10.7 µM) |  |  |
